This is an account of results in US6506901B2, “Substituted 2-(S)-hydroxy-3-(piperidin-4-yl-methylamino)-propyl ethers and substituted 2-aryl-2-(R)-hydroxy-1-(piperidin-4-yl-methyl)-ethylamine β-3 adrenergic receptor agonists” (Wyeth, priority 2000, dated 2003).

Where “and” joins values, the source holds several entries; their conditions need not be identical. Equal entries are not always repeated.

One experiment relates to β3 human transgenic mice. Nature of the experiment: Thermogenesis (Oxymax indirect calorimeter) in β3 transgenic (Tg) mice. The experiment is classed as in vivo, mice (FVB). The conditions noted are these: Mus musculus, ip, IP 10 mg/kg, percent increase in thermogenesis over baseline. An excerpt:
Evaluation in β3 Knockout(KO) and β3 Transgenic(Tg) Mice: The ability of compounds of this invention to treat or inhibit disorders related to insulin resistance or hyperglycemia was also confirmed with representative compounds of this invention in an in vivo standard pharmacological test procedure which compared thermogenesis in transgenic mice (Tg mice) and β3-knockout mice (KO mice).
β3-Adrenergic receptor knockout mice and β3 human transgenic mice are created on an inbred FVB background (Susulic, V. S., et.al., J. Biol. Chem., 1995, 270 (49), 29483-29492). Female FVB β3 transgenic and β3 knockout mice were used to determine in vivo activity and selectivity of β3 agonists. […] These compounds were also selective in being 100-fold less responsive and partial agonists when tested in β1 and β2 transfected CHO cells. Compounds were tested for increased thermogenesis using the Oxymax indirect calorimeter (Columbus Instruments, Columbus, Ohio). Fed animals were placed in chambers for 3 hours to obtain baseline O2 and CO2 values. Eight fed mice were weighed in pairs and placed in 4 chambers, two per chamber. The relative gas content of each chamber was sampled and recorded at 10 to 12 minute intervals. For each sample, energy expenditure values were calculated by the Oxymax and expressed as kcal/hr. After 3 hours of baseline measurement, the mice were removed, treated and replaced in the chambers. The β3 agonists were injected at doses between 0.1 and 20 mg/kg i.p. and between 1.0 and 30 mg/kg for oral administration. Compounds in 10 mM or 10 mg/ml DMSO solutions were suspended in 0.5% methylcellulose: 0.1% tween-80 and injected i.p. or administered by oral gavage. Some compounds were suspended in 5.0% tween-80 for oral administration. Post-treatment kcal/hr values were taken between 40 minutes and 2.5 hours later. The 6 to 10 sample sections of the pre-treatment and post-treatment periods, which appear to best represent stable resting thermogenesis, were selected. Each of these sample values was corrected for body weight and used such that each pair of mice serves as its own baseline for both T test and percent increase in thermogenesis calculations. An ANOVA and a one sided T test (H1: Post>Pre) are performed using the SAS software modified to down weight extreme values. In a separate set of calculations, values that appear to be too high to represent resting thermogenesis are discarded (activity monitor sampling associated spikes in thermogenesis with ambulatory activity). The mean baseline value for each chamber is subtracted from mean post-treatment value for that chamber. This baseline-subtracted value is divided by the mean baseline value and multiplied by 100 to obtain a percent increase in thermogenesis for each chamber. The combined mean percent increase, standard deviation, and standard error of the mean for each chamber is calculated. Compounds were considered active if they were able to produce a statistically significant 15% increase in thermogenesis in β3 transgenic mice and no significant increase in β3 knockout mice.

The next experiment has as its target T1, human β3 receptors (Homo sapiens, UniProt P13945).
T1 construct: Full length β3 AR clones (402 amino acids) containing the last 6 amino acids of hβ3—AR; expressed in transfected cells; host or cells: CHO cells
In words: cAMP response (SPA) in CHO cells expressing cloned human β3 adrenergic receptor. Format: cell-based. The conditions noted are these: for EC50: CHO cells expressing human β3 receptor, cAMP, 30 min incubation, 10^−9 M to 10^−5 M; for IA(β3): maximal response compared to the maximal response of isoproterenol at 10^−5 M. The procedure, abridged: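 CHO cells transfected with cloned human β3-AR were incubated with compound at 37° C for 30 min, stopped with 0.2N HCl and neutralized. cAMP was measured by SPA. Activity is expressed as per cent of the maximal isoproterenol (10^−5 M) response.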

The term EC50 denotes the concentration giving half of the maximal effect. A low value points to greater potency.

T1 sequence (P13945 whole entry): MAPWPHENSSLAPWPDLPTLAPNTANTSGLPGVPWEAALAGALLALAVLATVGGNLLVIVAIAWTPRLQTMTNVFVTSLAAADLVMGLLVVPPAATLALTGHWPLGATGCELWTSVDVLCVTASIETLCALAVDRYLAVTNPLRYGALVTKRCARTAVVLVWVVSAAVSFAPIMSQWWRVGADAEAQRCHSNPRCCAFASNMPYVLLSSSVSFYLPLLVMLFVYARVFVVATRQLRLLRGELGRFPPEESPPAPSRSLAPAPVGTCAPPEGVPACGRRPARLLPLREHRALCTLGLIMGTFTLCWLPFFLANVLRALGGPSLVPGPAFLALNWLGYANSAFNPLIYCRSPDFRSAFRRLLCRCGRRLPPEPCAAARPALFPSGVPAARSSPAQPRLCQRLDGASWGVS

With `O[C@@H](CNCC1CCN(CCC(F)(F)F)CC1)COc1cccc2[nH]c3ccccc3c12` [Example 10, (2S)-1-(9H-Carbazol-4-yloxy)-3-{[1-(3,3,3-trifluoro-propyl)-piperidin-4-ylmethyl]-amino}-propan-2-ol], in the experiment on β3 human transgenic mice (mouse type hetero), the change in vivo at 10 mg/kg was -15%.

For the molecule `CCCCCCNC(=O)Nc1ccc(S(=O)(=O)N2CCC(CNC[C@H](O)COc3cccc4[nH]c5ccccc5c34)CC2)cc1` [Example 58, 1-[4-(4-{[(2S)-3-(9H-Carbazol-4-yloxy)-2-hydroxy-propylamino]-methyl}-piperidine-1-sulfonyl)-phenyl]-3-hexyl-urea], the change in vivo at 10 mg/kg in the experiment on β3 human transgenic mice (mouse type hetero) was -3%.

With `CCCCCCNC(=O)Nc1ccc(S(=O)(=O)N2CCC(CNC[C@H](O)COc3ccc(O)cc3)CC2)cc1` [Example 59, 1-Hexyl-3-[4-(4-{[(2S)-2-hydroa-3-(4-hydroxy-phenoxy)-propylamino]-methyl}-piperidine-1-sulfonyl)-phenyl]-urea], the change in vivo at 10 mg/kg in the experiment on β3 human transgenic mice (mouse type homo) worked out at 5%.

With `CS(=O)(=O)Nc1cc([C@@H](O)CNCC2CCN(c3ccc(S(=O)(=O)N4CCCCC4)cc3)CC2)ccc1O` [Example 106, (R)-N-{2-Hydroxy-5-[1-hydroxy-2-({1-[4-(piperidine-1-sulfonyl)-phenyl]-piperidin-4-ylmethyl}-amino)-ethyl]-phenyl}-methanesulfonamide], at human β3 receptors, the midpoint of the response, the EC50, lay at 0.001 µM and the “IA(β3)” value is recorded as 0.97.

On to `COC(=O)c1ccc(N2CCC(CNC[C@H](O)c3ccc(O)c(NS(C)(=O)=O)c3)CC2)nc1` [Example 107, Methyl 6-(4-{[((2R)-2-Hydroxy-2-{4-hydroxy-3-[(methylsulfonyl)amino]phenyl}-ethyl)amino]methyl}piperidin-1-yl)-nicotinate], for which, on human β3 receptors, a half-maximal response (EC50) required 0.01 µM and the “IA(β3)” value stood at 1.2.

In the case of `CS(=O)(=O)Nc1cc([C@@H](O)CNCC2CCN(c3ccc(C(=O)N[C@@H](CC(=O)O)C(=O)O)cc3)CC2)ccc1O` [Example 108, (2S)-2-{[4-(4-{[((2R)-2-Hydroxy-2-{4-hydroxy-3-[(methylsulfonyl)amino]phenyl}-ethyl)amino]methyl}piperidin-1-yl)benzoyl]amino}butanedioic Acid], on human β3 receptors, it took […] to reach a half-maximal effect (EC50) and the “IA(β3)” value worked out at […].

With `COC(=O)[C@@H]1CCCN1C(=O)Nc1ccc(S(=O)(=O)N2CCC(CNC[C@H](O)c3ccc(O)c(NS(C)(=O)=O)c3)CC2)cc1` [Example 111, (2S)-1-({4-[(4-{[((2R)-2-Hydroxy-2-{4-hydroxy-3-[(methylsulfonyl)amino]-phenyl}ethyl)amino]methyl}piperidin-1-yl)sulfonyl]anilino}carbonyl)pyrrolidine-2-carboxylic Acid Methyl Ester], at human β3 receptors, the response was half-maximal at 0.095 µM (EC50) and the “IA(β3)” value is reported as 0.9.

For the molecule `CS(=O)(=O)Nc1cc([C@@H](O)CNCC2CCN(S(=O)(=O)c3ccc(NC(=O)N4CCC[C@H]4C(=O)O)cc3)CC2)ccc1O` [Example 112, (2S)-1-({4-[(4-{[((2R)-2-Hydroxy-2-{4-hydroxy-3-[(methylsulfonyl)amino]phenyl}-ethyl)amino]methyl}piperidin-1-yl)sulfonyl]anilino}carbonyl)pyrrolidine-2-carboxylic Acid], at human β3 receptors, a half-maximal effect (EC50) was put at 0.131 µM and the “IA(β3)” value came to 0.93.

As for `CC(C)C[C@H](NC(=O)c1ccc(N2CCC(CNC[C@H](O)c3ccc(O)c(NS(C)(=O)=O)c3)CC2)cc1)C(=O)O` [Example 114, (2S)-2-{[4-(4-{[((2R)-2-Hydroxy-2-{4-hydroxy-3-[(methylsulfonyl)amino]phenyl}-ethyl)amino]methyl}piperidin-1-yl)benzoyl]amino}-4-methylpentanoic Acid], at human β3 receptors, the EC50 was found to be 0.01 µM and the “IA(β3)” value was 1.

As to `CC(C)c1ccc(S(=O)(=O)N2CCC(CNC[C@H](O)c3ccc(O)c(NS(C)(=O)=O)c3)CC2)cc1` [Example 124, N-(2-hydroxy-5-{(1R)-1-hydroxy-2-[({1-[(4-isopropylphenyl)-sulfonyl]piperidin-4-yl}methyl)amino]ethyl}phenyl)-methanesulfonamide], on human β3 receptors, it took 0.055 µM to reach a half-maximal effect (EC50) and the “IA(β3)” value is recorded as 1.

For `Cc1c(C)c(C)c(S(=O)(=O)N2CCC(CNC[C@H](O)c3ccc(O)c(NS(C)(=O)=O)c3)CC2)c(C)c1C` [Example 143, N-(2-hydroxy-5-{(1R)-1-hydroxy-2-[({1-[(2,3,4,5,6-pentamethylphenyl)suIfonyl]piperidin-4-yl}methyl)amino]ethyl}phenyl)methanesulfonamide], at human β3 receptors, a half-maximal effect (EC50) was put at 0.81 µM and the “IA(β3)” value is listed as 1.34.

With `CS(=O)(=O)Nc1cc([C@@H](O)CNCC2CCN(S(=O)(=O)c3cccc4ccccc34)CC2)ccc1O` [Example 153, N-{2-hydroxy-5-[(1R)-1-hydroxy-2-({[1-(1-naphthylsulfonyl)piperidin-4-yl]methyl}amino)ethyl)phenyl}methanesulfonamide], on human β3 receptors, the EC50 is 0.042 µM and the “IA(β3)” value is on record as 0.76.

With `O=c1[nH]c2cccc(OC[C@@H](O)CNCC3CCN(S(=O)(=O)c4ccc5ccccc5c4)CC3)c2[nH]1` [Example 157, 4-{[(2S)-2-hydroxy-3-({[1-(2-naphthylsulfonyl)piperidin-4-yl]methyl}amino)propyl]oxy}-1,3-dihydro-2H-benzimidazol-2-one], on human β3 receptors, the EC50 was 0.67 µM and the “IA(β3)” value stood at 1.

In the case of `CC(C)(C)c1ccc(S(=O)(=O)N2CCC(CNC[C@H](O)COc3ccc(O)cc3)CC2)cc1` [Example 160, 4-[((2S)-3-{[(1-{[4-(tert-butyl)phenyl]sulfonyl}piperidin-4-yl)methyl]amino}-2-hydroxypropyl)oxy]phenol], at human β3 receptors, the response was half-maximal at 0.346 µM (EC50) and the “IA(β3)” value was found to be 0.85.

As for `CC(C)(C)c1ccc(S(=O)(=O)N2CCC(CNC[C@H](O)COc3cccc4[nH]c(=O)[nH]c34)CC2)cc1` [Example 162, 4-[((2S)-3-{[(1-{[4-(tert-butyl)phenyl]sulfonyl}piperidin-4-yl)methyl]-amino}-2-hydroxypropyl)oxy]-1,3-dihydro-2H-benzimidazol-2-one], on human β3 receptors, the EC50 was 0.011 µM and 0.035 µM; the “IA(β3)” value was 0.64 and 0.94.

`CC(C)(C)c1ccc(S(=O)(=O)N2CCC(CNC[C@H](O)c3ccc(O)c(NS(C)(=O)=O)c3)CC2)cc1` [Example 163, N-[5-((1R)-2-{[(1-{[4-(tert-butyl)phenyl]sulfonyl}piperidin-4-yl)-methyl]amino}-1-hydroxyethyl)-2-hydroxyphenyl]-methanesulfonamide]: at human β3 receptors, the response was half-maximal at 0.04 µM (EC50) and the “IA(β3)” value was 0.85.

Turning to `CCc1cc(Br)ccc1S(=O)(=O)N1CCC(CNC[C@H](O)c2ccc(O)c(NS(C)(=O)=O)c2)CC1` [Example 168, N-(5-((1R)-2-[({1-[(4-bromo-2-ethylphenyl)sulfonyl]piperidin-4-yl}-methyl)amino]-1-hydroxyethyl}-2-hydroxyphenyl)-methanesulfonamide], at human β3 receptors, the EC50 is 0.94 µM and the “IA(β3)” value amounted to 0.72.

As for `CS(=O)(=O)Nc1cc([C@@H](O)CNCC2CCN(S(=O)(=O)c3c(Cl)sc(Cl)c3Br)CC2)ccc1O` [Example 173, N-(5-{(1R)-2-[({1-[(4-bromo-2,5-dichlorothien-3-yl)sulfonyl]-piperidin-4-yl}methyl)amino]-1-hydroxyethyl}-2-hydroxyphenyl)-methanesulfonamide], at human β3 receptors, the EC50 was 0.388 µM and 0.38 µM; the “IA(β3)” value was 1.34 and 1.15.

For `CS(=O)(=O)Nc1cc([C@@H](O)CNCC2CCN(S(=O)(=O)c3ccc(CNC(=O)c4ccccc4)s3)CC2)ccc1O` [Example 183, N-({5-[(4-{[((2R)-2-hydroxy-2-{4-hydroxy-3-[(methylsulfonyl)-amino]-phenyl}ethyl)amino]methyl}piperidin-1-yl)sulfonyl]thien-2-yl}methyl)benzamide], at human β3 receptors, the EC50 amounted to 1.41 µM and the “IA(β3)” value was found to be 0.72.
